Experimental data as given in PubChem BioAssay AID2060893 (Molecular Pharmacology Branch, DTP, NCI, 2025).

System: K86415-001-R-J1-PDC complex spheroids, viability
Experiment: Anticancer human tumor K86415-001-R-J1-PDC patient-derived lung adenocarcinoma cell line growth inhibition [RAS]
Conditions: for IC50: curve of first compound; for viability, T/C: stronger effect = lower value
Method in brief: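 Agents were tested in combination matrices in half-log decrements from a top concentration at or near clinical Cmax (10 microM if undetermined). Targets were multi-cell spheroids of tumour lines plus HUVEC and MSC stromal cells.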

[1] = second compound 0.0316 µM, first compound 0.00316 µM
[2] = second compound 0.0316 µM, first compound 0.01 µM
[3] = second compound 0.0316 µM, first compound 0.0316 µM
[4] = second compound 0.0316 µM, first compound 0.1 µM
[5] = second compound 0.0316 µM, first compound 0.316 µM
[6] = second compound 0.0316 µM, first compound 1 µM
[7] = second compound 0.1 µM, first compound 0.00316 µM
[8] = second compound 0.1 µM, first compound 0.01 µM
[9] = second compound 0.1 µM, first compound 0.0316 µM
[10] = second compound 0.1 µM, first compound 0.1 µM
[11] = second compound 0.1 µM, first compound 0.316 µM
[12] = second compound 0.1 µM, first compound 1 µM
[13] = second compound 0.316 µM, first compound 0.00316 µM
[14] = second compound 0.316 µM, first compound 0.01 µM
[15] = second compound 0.316 µM, first compound 0.0316 µM
[16] = second compound 0.316 µM, first compound 0.1 µM
[17] = second compound 0.316 µM, first compound 0.316 µM
[18] = second compound 0.316 µM, first compound 1 µM
[19] = second compound 1 µM, first compound 0.00316 µM
[20] = second compound 1 µM, first compound 0.01 µM
[21] = second compound 1 µM, first compound 0.0316 µM
[22] = second compound 1 µM, first compound 0.1 µM
[23] = second compound 1 µM, first compound 0.316 µM
[24] = second compound 1 µM, first compound 1 µM
[25] = second compound 0.0316 µM, first compound 0.000949 µM
[26] = second compound 0.0316 µM, first compound 0.003 µM
[27] = second compound 0.0316 µM, first compound 0.00949 µM
[28] = second compound 0.0316 µM, first compound 0.03 µM
[29] = second compound 0.0316 µM, first compound 0.0949 µM
[30] = second compound 0.0316 µM, first compound 0.3 µM
[31] = second compound 0.1 µM, first compound 0.000949 µM
[32] = second compound 0.1 µM, first compound 0.003 µM
[33] = second compound 0.1 µM, first compound 0.00949 µM
[34] = second compound 0.1 µM, first compound 0.03 µM
[35] = second compound 0.1 µM, first compound 0.0949 µM
[36] = second compound 0.1 µM, first compound 0.3 µM
[37] = second compound 0.316 µM, first compound 0.000949 µM
[38] = second compound 0.316 µM, first compound 0.003 µM
[39] = second compound 0.316 µM, first compound 0.00949 µM
[40] = second compound 0.316 µM, first compound 0.03 µM
[41] = second compound 0.316 µM, first compound 0.0949 µM
[42] = second compound 0.316 µM, first compound 0.3 µM
[43] = second compound 1 µM, first compound 0.000949 µM
[44] = second compound 1 µM, first compound 0.003 µM
[45] = second compound 1 µM, first compound 0.00949 µM
[46] = second compound 1 µM, first compound 0.03 µM
[47] = second compound 1 µM, first compound 0.0949 µM
[48] = second compound 1 µM, first compound 0.3 µM
[49] = second compound 3.16 µM, first compound 0.000949 µM
[50] = second compound 3.16 µM, first compound 0.003 µM
[51] = second compound 3.16 µM, first compound 0.00949 µM
[52] = second compound 3.16 µM, first compound 0.03 µM
[53] = second compound 3.16 µM, first compound 0.0949 µM
[54] = second compound 3.16 µM, first compound 0.3 µM
[55] = second compound 10 µM, first compound 0.000949 µM
[56] = second compound 10 µM, first compound 0.003 µM
[57] = second compound 10 µM, first compound 0.00949 µM
[58] = second compound 10 µM, first compound 0.03 µM
[59] = second compound 10 µM, first compound 0.0949 µM
[60] = second compound 10 µM, first compound 0.3 µM
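Also: spheroids exposed to agents for seven days before readout.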

Structure (SMILES): C=CC(=O)N1CCN(c2nc(OCC3CCCN3C)nc3c(F)c(-c4nc(N)cc(C)c4C(F)(F)F)c(Cl)cc23)C(C)C1 (stereo not drawn) + C#Cc1c(F)ccc2cc(O)cc(-c3ncc4c(N5CC6CCC(C5)N6)nc(OCC56CCCN5CC(F)C6)nc4c3F)c12
- IC50 (second compound 0.0316 µM): < 3.16 nM
- IC50 (second compound 0.1 µM): < 3.16 nM
- IC50 (second compound 0.316 µM): < 3.16 nM
- IC50 (second compound 1 µM): < 3.16 nM
- IC50 (second compound 3.16 µM): < 3.16 nM
- IC50 (second compound 10 µM): < 3.16 nM
- viability, T/C [1]: 18.2%
- viability, T/C [2]: 12.5%
- viability, T/C [3]: 11.4%
- viability, T/C [4]: 11.2%
- viability, T/C [5]: 8.99%
- viability, T/C [6]: 12%
- viability, T/C [7]: 19.5%
- viability, T/C [8]: 12.3%
- viability, T/C [9]: 11.3%
- viability, T/C [10]: 10.5%
- viability, T/C [11]: 7.88%
- viability, T/C [12]: 11%
- viability, T/C [13]: 19.9%
- viability, T/C [14]: 11.8%
- viability, T/C [15]: 8.76%
- viability, T/C [16]: 12.1%
- viability, T/C [17]: 9.15%
- viability, T/C [18]: 9.63%
- viability, T/C [19]: 18.6%
- viability, T/C [20]: 13.6%
- viability, T/C [21]: 13.2%
- viability, T/C [22]: 8.99%
- viability, T/C [23]: 10.1%
- viability, T/C [24]: 10.7%
- viability, T/C (second compound 3.16 µM, first compound 0.00316 µM): 19.5%
- viability, T/C (second compound 3.16 µM, first compound 0.01 µM): 13.4%
- viability, T/C (second compound 3.16 µM, first compound 0.0316 µM): 9.24%
- viability, T/C (second compound 3.16 µM, first compound 0.1 µM): 9.62%
- viability, T/C (second compound 3.16 µM, first compound 0.316 µM): 9.96%
- viability, T/C (second compound 3.16 µM, first compound 1 µM): 9.83%
- viability, T/C (second compound 10 µM, first compound 0.00316 µM): 11.9%
- viability, T/C (second compound 10 µM, first compound 0.01 µM): 12.9%
- viability, T/C (second compound 10 µM, first compound 0.0316 µM): 10.9%
- viability, T/C (second compound 10 µM, first compound 0.1 µM): 9.94%
- viability, T/C (second compound 10 µM, first compound 0.316 µM): 10.1%
- viability, T/C (second compound 10 µM, first compound 1 µM): 9.54%

Structure (SMILES): CC1(C)CCC(Nc2ncc(C(F)(F)F)c(-c3c[nH]c4c(P(C)(C)=O)c(C#N)ccc34)n2)CN1 (stereo not drawn) + C#Cc1c(F)ccc2cc(O)cc(-c3ncc4c(N5CC6CCC(C5)N6)nc(OCC56CCCN5CC(F)C6)nc4c3F)c12
- IC50 (second compound 0.0316 µM): 300 nM
- IC50 (second compound 0.1 µM): > 300 nM
- IC50 (second compound 0.316 µM): 300 nM
- IC50 (second compound 1 µM): > 300 nM
- IC50 (second compound 3.16 µM): > 300 nM
- IC50 (second compound 10 µM): < 0.949 nM
- viability, T/C [25]: 103%
- viability, T/C [26]: 131%
- viability, T/C [27]: 75.3%
- viability, T/C [28]: 59.8%
- viability, T/C [29]: 56.6%
- viability, T/C [30]: 55.5%
- viability, T/C [31]: 103%
- viability, T/C [32]: 118%
- viability, T/C [33]: 77.3%
- viability, T/C [34]: 62%
- viability, T/C [35]: 57.4%
- viability, T/C [36]: 61%
- viability, T/C [37]: 101%
- viability, T/C [38]: 119%
- viability, T/C [39]: 78.3%
- viability, T/C [40]: 60.4%
- viability, T/C [41]: 62.8%
- viability, T/C [42]: 61.9%
- viability, T/C [43]: 78.5%
- viability, T/C [44]: 103%
- viability, T/C [45]: 76.5%
- viability, T/C [46]: 57.4%
- viability, T/C [47]: 60.6%
- viability, T/C [48]: 65.5%
- viability, T/C [49]: 39.1%
- viability, T/C [50]: 64.3%
- viability, T/C [51]: 60.5%
- viability, T/C [52]: 49.5%
- viability, T/C [53]: 47.9%
- viability, T/C [54]: 55.8%
- viability, T/C [55]: 19%
- viability, T/C [56]: 22%
- viability, T/C [57]: 26.7%
- viability, T/C [58]: 29.1%
- viability, T/C [59]: 33.6%
- viability, T/C [60]: 34.3%

Structure (SMILES): CCc1c2c(nc3ccc(O)cc13)-c1cc3c(c(=O)n1C2)COC(=O)[C@]3(O)CC + C#Cc1c(F)ccc2cc(O)cc(-c3ncc4c(N5CC6CCC(C5)N6)nc(OCC56CCCN5CC(F)C6)nc4c3F)c12
- IC50 (second compound 0.0316 µM): 2.54 nM
- IC50 (second compound 0.1 µM): 2.62 nM
- IC50 (second compound 0.316 µM): 2.35 nM
- IC50 (second compound 1 µM): 1.79 nM
- IC50 (second compound 3.16 µM): < 0.949 nM
- IC50 (second compound 10 µM): < 0.949 nM
- viability, T/C [25]: 93.6%
- viability, T/C [26]: 41.2%
- viability, T/C [27]: 21.4%
- viability, T/C [28]: 17%
- viability, T/C [29]: 10.5%
- viability, T/C [30]: 5.25%
- viability, T/C [31]: 85%
- viability, T/C [32]: 44.7%
- viability, T/C [33]: 24.1%
- viability, T/C [34]: 14%
- viability, T/C [35]: 9.47%
- viability, T/C [36]: 5.05%
- viability, T/C [37]: 80.7%
- viability, T/C [38]: 40.4%
- viability, T/C [39]: 23.9%
- viability, T/C [40]: 15.6%
- viability, T/C [41]: 11.5%
- viability, T/C [42]: 5.49%
- viability, T/C [43]: 69.1%
- viability, T/C [44]: 34.6%
- viability, T/C [45]: 17.2%
- viability, T/C [46]: 13.6%
- viability, T/C [47]: 10.5%
- viability, T/C [48]: 6.31%
- viability, T/C [49]: 46%
- viability, T/C [50]: 33.3%
- viability, T/C [51]: 22.5%
- viability, T/C [52]: 15.5%
- viability, T/C [53]: 13.9%
- viability, T/C [54]: 6.66%
- viability, T/C [55]: 17%
- viability, T/C [56]: 12.8%
- viability, T/C [57]: 16.1%
- viability, T/C [58]: 18.1%
- viability, T/C [59]: 14.2%
- viability, T/C [60]: 6.63%

Structure (SMILES): C=CC(=O)Nc1cc(Nc2nccc(-c3cn(C)c4ccccc34)n2)c(OC)cc1N(C)CCN(C)C + C=CC(=O)N1CCN(c2nc(OCC3CCCN3C)nc3c(F)c(-c4nc(N)cc(C)c4C(F)(F)F)c(Cl)cc23)C(C)C1
- IC50 (second compound 0.00316 µM): < 3.16 nM
- IC50 (second compound 0.01 µM): < 3.16 nM
- IC50 (second compound 0.0316 µM): < 3.16 nM
- IC50 (second compound 0.1 µM): < 3.16 nM
- IC50 (second compound 0.316 µM): < 3.16 nM
- IC50 (second compound 1 µM): < 3.16 nM
- viability, T/C (second compound 0.00316 µM, first compound 0.00316 µM): 19.7%
- viability, T/C (second compound 0.00316 µM, first compound 0.01 µM): 17.1%
- viability, T/C (second compound 0.00316 µM, first compound 0.0316 µM): 15.6%
- viability, T/C (second compound 0.00316 µM, first compound 0.1 µM): 13.2%
- viability, T/C (second compound 0.00316 µM, first compound 0.316 µM): 8.17%
- viability, T/C (second compound 0.00316 µM, first compound 1 µM): 7.25%
- viability, T/C (second compound 0.01 µM, first compound 0.00316 µM): 11.2%
- viability, T/C (second compound 0.01 µM, first compound 0.01 µM): 10.3%
- viability, T/C (second compound 0.01 µM, first compound 0.0316 µM): 11%
- viability, T/C (second compound 0.01 µM, first compound 0.1 µM): 8.19%
- viability, T/C (second compound 0.01 µM, first compound 0.316 µM): 6.56%
- viability, T/C (second compound 0.01 µM, first compound 1 µM): 6.11%
- viability, T/C [1]: 10.1%
- viability, T/C [2]: 11.4%
- viability, T/C [3]: 8.27%
- viability, T/C [4]: 6%
- viability, T/C [5]: 5.17%
- viability, T/C [6]: 5.86%
- viability, T/C [7]: 10%
- viability, T/C [8]: 9.55%
- viability, T/C [9]: 8.9%
- viability, T/C [10]: 7.91%
- viability, T/C [11]: 5.85%
- viability, T/C [12]: 5.65%
- viability, T/C [13]: 8.48%
- viability, T/C [14]: 10.5%
- viability, T/C [15]: 11.3%
- viability, T/C [16]: 6.83%
- viability, T/C [17]: 5.85%
- viability, T/C [18]: 5.41%
- viability, T/C [19]: 11%
- viability, T/C [20]: 10.2%
- viability, T/C [21]: 7.67%
- viability, T/C [22]: 8.2%
- viability, T/C [23]: 7.08%
- viability, T/C [24]: 6.01%
